Assay results from patent EP3046573B1, “AMYLIN ANALOGUES” (Zealand Pharma A/S, priority 2013, dated 2015).
Read-outs that look alike come from different tables or passages of the source. Numbered stars: 1 amine (or outer) side, 2 acyl side, 3 side chain; on linkers, the order of the positions; unused ones are H or OH. Bridge positions count the residues as written; N and C are the ends. Square brackets hold non-standard residues; d marks the D form. Peptide text beside a SMILES is read from it. * marks the point of attachment. C20 diacid = O=C(O)CCCCCCCCCCCCCCCCCCC(=O)*; γGlu = O=C(O)[C@H](CCC(=O)[*:2])N[*:1]; NMeI = CC[C@H](C)[C@H](NC)C(=O)O; Sar = CNCC(=O)O

Assays:
[1] = biological target: T1, human calcitonin receptor (hCTR2) (Homo sapiens, UniProt P30988); assay: hCTR2 assay: induction of cAMP (AlphaScreen cAMP Assay kit) in COS7 cells expressing hCTR2; type: cell-based
T1 construct: expressed in transfected cells
T1 sequence (P30988 25-474): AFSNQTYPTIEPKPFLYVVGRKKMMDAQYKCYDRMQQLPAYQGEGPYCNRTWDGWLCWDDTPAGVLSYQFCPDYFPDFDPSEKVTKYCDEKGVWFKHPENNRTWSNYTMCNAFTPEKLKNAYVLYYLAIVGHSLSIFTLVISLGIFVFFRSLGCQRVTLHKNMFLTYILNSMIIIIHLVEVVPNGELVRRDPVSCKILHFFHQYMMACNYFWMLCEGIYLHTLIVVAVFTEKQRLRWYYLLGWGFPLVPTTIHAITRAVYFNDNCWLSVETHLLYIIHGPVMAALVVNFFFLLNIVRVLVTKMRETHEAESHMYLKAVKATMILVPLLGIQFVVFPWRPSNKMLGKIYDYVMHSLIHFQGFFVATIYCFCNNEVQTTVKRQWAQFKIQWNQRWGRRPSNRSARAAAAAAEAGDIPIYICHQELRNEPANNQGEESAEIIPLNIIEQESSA
Method in brief: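 cAMP induction was measured by AlphaScreen in COS7 cells stably expressing hCTR2 without RAMPs, after 15 min at 37° C with increasing peptide concentrations, 100 µM IBMX and 0.1% casein (Tyrode, pH 7.4). A 4-parameter logistic fit gave EC50 and % efficacy versus pramlintide.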

[2] = Solubility assessment (turbidity absorbance at 325 nm); type: physicochemical; details: stock 2 mg/ml diluted 1:1, ambient temperature (typically 25°C), n=1; for Solubility, Acetate buffer pH 4: 100 mM acetate buffer pH 4.0; for Solubility, Acetate buffer pH 5: 100 mM acetate buffer pH 5.0; for Solubility, Histidine buffer pH 6: 100 mM histidine buffer pH 6.0; for Solubility, Histidine buffer pH 7: 100 mM histidine buffer pH 7.0; for Solubility, Phosphate buffer pH 6: 100 mM phosphate buffer pH 6.0; for Solubility, Phosphate buffer pH 7: 100 mM phosphate buffer pH 7.0; for Solubility, Phosphate buffer pH 7.5: 100 mM phosphate buffer pH7.5
Method: A stock solution of the test peptide (2 mg/ml; determined from the weighed amount of peptide) in demineralized water adjusted to pH 2.5 with HCI was prepared, and aliquots were diluted 1:1 in 100 mM acetate buffer (pH 4.0 and pH 5.0), 100 mM histidine buffer (pH 6.0 and pH 7.0) and 100 mM phosphate buffer (pH 6.0, pH 7.0 and pH7.5), respectively, and loaded in a standard flat-bottom, non-sterile 96-well UV Microplate. The absorbance of samples (single samples, n=1) at 280 and 325 nm was measured in an absorbance-based plate reader, which was preheated to ambient temperature (typically 25°C). The turbidity absorbance criterion for a peptide solubility of ≥ 1 mg/ml was an absorbance at 325 nm of ≤ 0.02 absorbance units (which is 5 to 6 times the standard deviation of 8 buffer samples in a plate). Solubility data for peptides of the invention, pramlintide, and for a comparison pramlintide derivative denoted NN96 (see Example 5 below for details) are shown in Table 1, below. Table 1. Solubility data for compounds of the invention.

[3] = cAMP induction in COS7 cells expressing hCTR2, average of a minimum of 3 determinations, read-out: hCTR2 EC50

CC[C@H](C)[C@@H](C(=O)N[C@@H](CC(C)C)C(=O)N[C@@H](CO)C(=O)N[C@@H](CO)C(=O)N[C@H](C(=O)N[C@@H](CC(N)=O)C(=O)N[C@H](C(=O)NCC(=O)N[C@@H](CO)C(=O)N[C@@H](Cc1c[nH]cn1)C(=O)N[C@H](C(=O)N[C@@H](Cc1ccc(O)cc1)C(N)=O)[C@@H](C)O)C(C)C)[C@@H](C)O)N(C)C(=O)CN(C)C(=O)[C@H](Cc1ccccc1)NC(=O)[C@H](CC(N)=O)NC(=O)[C@H](CC(N)=O)NC(=O)[C@H](CO)NC(=O)[C@H](CO)NC(=O)[C@H](Cc1c[nH]cn1)NC(=O)[C@H](Cc1c[nH]cn1)NC(=O)[C@H](CC(C)C)NC(=O)[C@H](Cc1ccccc1)NC(=O)[C@H](CCC(=O)O)NC(=O)[C@H](C)NC(=O)[C@H](CC(C)C)NC(=O)[C@H](CCCNC(=N)N)NC(=O)[C@H](CCC(N)=O)NC(=O)[C@@H](NC(=O)[C@H](C)NC(=O)[C@@H]1CSSC[C@H](NC(=O)[C@H](CCCCN)NC(=O)CC[C@H](NC(=O)CCCCCCCCCCCCCCCCCCC(=O)O)C(=O)O)C(=O)N[C@@H](CC(N)=O)C(=O)N[C@@H]([C@@H](C)O)C(=O)N[C@@H](C)C(=O)N[C@@H]([C@@H](C)O)C(=O)N1)[C@@H](C)O [Compound 4, [19CD]-isoGlu-KC()NTATC()ATQRLAEFLHHSSNNF-Gly(Me)-Ile(Me)-LSSTNVGSHTY-NH2] ({C20 diacid-γGlu}-KCNTATCATQRLAEFLHHSSNNF[Sar][NMeI]LSSTNVGSHTY-NH2; disulfide 2-7)
EC50 [1, 3]: 1.3 nM | Solubility, Acetate buffer pH 4 [2]: II (II indicates solubility ≤ 1 mg/ml) | Solubility, Acetate buffer pH 5 [2]: SS (SS indicates solubility ≥ 1mg/ml) | Solubility, Histidine buffer pH 6 [2]: II (II indicates solubility ≤ 1 mg/ml) | Solubility, Histidine buffer pH 7 [2]: II (II indicates solubility ≤ 1 mg/ml) | Solubility, Phosphate buffer pH 6 [2]: II (II indicates solubility ≤ 1 mg/ml) | Solubility, Phosphate buffer pH 7 [2]: II (II indicates solubility ≤ 1 mg/ml) | Solubility, Phosphate buffer pH 7.5 [2]: II (II indicates solubility ≤ 1 mg/ml)

CC[C@H](C)[C@@H](C(=O)N[C@@H](CC(C)C)C(=O)N[C@@H](CO)C(=O)N[C@@H](CO)C(=O)N[C@H](C(=O)N[C@@H](CC(N)=O)C(=O)N[C@H](C(=O)NCC(=O)N[C@@H](CO)C(=O)N[C@@H](CC(N)=O)C(=O)N[C@H](C(=O)N1CCC[C@H]1C(N)=O)[C@@H](C)O)C(C)C)[C@@H](C)O)N(C)C(=O)[C@H](C)NC(=O)CN(C)C(=O)[C@H](Cc1ccccc1)NC(=O)[C@H](CC(N)=O)NC(=O)[C@H](CC(N)=O)NC(=O)[C@H](CO)NC(=O)[C@H](CO)NC(=O)[C@H](Cc1c[nH]cn1)NC(=O)[C@H](Cc1c[nH]cn1)NC(=O)[C@H](CC(C)C)NC(=O)[C@H](Cc1ccccc1)NC(=O)[C@H](CCC(=O)O)NC(=O)[C@H](C)NC(=O)[C@H](CC(C)C)NC(=O)[C@H](CCCNC(=N)N)NC(=O)[C@H](CCC(N)=O)NC(=O)[C@@H](NC(=O)[C@H](C)NC(=O)[C@@H]1CSSC[C@H](NC(=O)[C@H](C)NC(=O)CC[C@H](NC(=O)CCCCCCCCCCCCCCCCCCC(=O)O)C(=O)O)C(=O)N[C@@H](CC(N)=O)C(=O)N[C@@H]([C@@H](C)O)C(=O)N[C@@H](C)C(=O)N[C@@H]([C@@H](C)O)C(=O)N1)[C@@H](C)O [Compound 5, [19CD]-isoGlu-AC()NTATC()ATQRLAEFLHHSSNNF-Gly(Me)-A-Ile(Me)-LSSTNVGSNTP-NH2] ({C20 diacid-γGlu}-ACNTATCATQRLAEFLHHSSNNF[Sar]A[NMeI]LSSTNVGSNTP-NH2; disulfide 2-7)
EC50 [1]: 0.75 nM | Solubility, Acetate buffer pH 4 [2]: SS (SS indicates solubility ≥ 1mg/ml) | Solubility, Acetate buffer pH 5 [2]: SS (SS indicates solubility ≥ 1mg/ml) | Solubility, Histidine buffer pH 6 [2]: SS (SS indicates solubility ≥ 1mg/ml) | Solubility, Histidine buffer pH 7 [2]: SS (SS indicates solubility ≥ 1mg/ml) | Solubility, Phosphate buffer pH 6 [2]: SS (SS indicates solubility ≥ 1mg/ml) | Solubility, Phosphate buffer pH 7 [2]: SS (SS indicates solubility ≥ 1mg/ml) | Solubility, Phosphate buffer pH 7.5 [2]: SS (SS indicates solubility ≥ 1mg/ml)

CC[C@H](C)[C@@H](C(=O)N[C@@H](CC(C)C)C(=O)N[C@@H](CO)C(=O)N[C@@H](CO)C(=O)N[C@H](C(=O)N[C@@H](CC(N)=O)C(=O)N[C@H](C(=O)NCC(=O)N[C@@H](CO)C(=O)N[C@@H](CC(N)=O)C(=O)N[C@H](C(=O)N1CCC[C@H]1C(N)=O)[C@@H](C)O)C(C)C)[C@@H](C)O)N(C)C(=O)[C@H](C)NC(=O)CN(C)C(=O)[C@H](Cc1ccccc1)NC(=O)[C@H](CC(N)=O)NC(=O)[C@H](CC(N)=O)NC(=O)[C@H](CO)NC(=O)[C@H](CO)NC(=O)[C@H](Cc1c[nH]cn1)NC(=O)[C@H](Cc1c[nH]cn1)NC(=O)[C@H](CC(C)C)NC(=O)[C@H](Cc1ccccc1)NC(=O)[C@H](CCC(=O)O)NC(=O)[C@H](C)NC(=O)[C@H](CC(C)C)NC(=O)[C@H](CCCNC(=N)N)NC(=O)[C@H](CCC(N)=O)NC(=O)[C@@H](NC(=O)[C@H](C)NC(=O)[C@@H]1CSSC[C@H](NC(=O)[C@H](CCCCN)NC(=O)CC[C@H](NC(=O)CCCCCCCCCCCCCCCCCCC(=O)O)C(=O)O)C(=O)N[C@@H](CC(N)=O)C(=O)N[C@@H]([C@@H](C)O)C(=O)N[C@@H](C)C(=O)N[C@@H]([C@@H](C)O)C(=O)N1)[C@@H](C)O [Compound 19, [19CD]-isoGlu-KC()NTATC()ATQRLAEFLHHSSNNF-Gly(Me)-A-Ile(Me)-LSSTNVGSNTP-NH2] ({C20 diacid-γGlu}-KCNTATCATQRLAEFLHHSSNNF[Sar]A[NMeI]LSSTNVGSNTP-NH2; disulfide 2-7)
EC50 [1]: 0.071 nM | Solubility, Acetate buffer pH 4 [2]: SS (SS indicates solubility ≥ 1mg/ml) | Solubility, Acetate buffer pH 5 [2]: SS (SS indicates solubility ≥ 1mg/ml) | Solubility, Histidine buffer pH 6 [2]: SS (SS indicates solubility ≥ 1mg/ml) | Solubility, Histidine buffer pH 7 [2]: SS (SS indicates solubility ≥ 1mg/ml) | Solubility, Phosphate buffer pH 6 [2]: SS (SS indicates solubility ≥ 1mg/ml) | Solubility, Phosphate buffer pH 7 [2]: SS (SS indicates solubility ≥ 1mg/ml) | Solubility, Phosphate buffer pH 7.5 [2]: SS (SS indicates solubility ≥ 1mg/ml)

CC[C@H](C)[C@@H](C(=O)N[C@@H](CC(C)C)C(=O)N[C@@H](CO)C(=O)N[C@@H](CO)C(=O)N[C@H](C(=O)N[C@@H](CC(N)=O)C(=O)N[C@H](C(=O)NCC(=O)N[C@@H](CO)C(=O)N[C@@H](CC(N)=O)C(=O)N[C@H](C(=O)N1CCC[C@H]1C(N)=O)[C@@H](C)O)C(C)C)[C@@H](C)O)N(C)C(=O)CN(C)C(=O)[C@H](Cc1ccccc1)NC(=O)[C@H](CC(N)=O)NC(=O)[C@H](CC(N)=O)NC(=O)[C@H](CO)NC(=O)[C@H](CO)NC(=O)[C@H](Cc1c[nH]cn1)NC(=O)[C@H](Cc1c[nH]cn1)NC(=O)[C@H](CC(C)C)NC(=O)[C@H](Cc1ccccc1)NC(=O)[C@H](CCC(=O)O)NC(=O)[C@H](C)NC(=O)[C@H](CC(C)C)NC(=O)[C@H](CCCNC(=N)N)NC(=O)[C@H](CCC(N)=O)NC(=O)[C@@H](NC(=O)[C@H](C)NC(=O)[C@@H]1CSSC[C@H](NC(=O)[C@H](CCCCN)NC(=O)CC[C@H](NC(=O)CCCCCCCCCCCCCCCCCCC(=O)O)C(=O)O)C(=O)N[C@@H](CC(N)=O)C(=O)N[C@@H]([C@@H](C)O)C(=O)N[C@@H](C)C(=O)N[C@@H]([C@@H](C)O)C(=O)N1)[C@@H](C)O [Compound 20, [19CD]-isoGlu-KC()NTATC()ATQRLAEFLHHSSNNF-Gly(Me)-Ile(Me)-LSSTNVGSNTP-NH2] ({C20 diacid-γGlu}-KCNTATCATQRLAEFLHHSSNNF[Sar][NMeI]LSSTNVGSNTP-NH2; disulfide 2-7)
EC50 [1, 3]: 0.094 nM | Solubility, Acetate buffer pH 4 [2]: SS (SS indicates solubility ≥ 1mg/ml) | Solubility, Acetate buffer pH 5 [2]: SS (SS indicates solubility ≥ 1mg/ml) | Solubility, Histidine buffer pH 6 [2]: SS (SS indicates solubility ≥ 1mg/ml) | Solubility, Histidine buffer pH 7 [2]: SS (SS indicates solubility ≥ 1mg/ml) | Solubility, Phosphate buffer pH 6 [2]: SS (SS indicates solubility ≥ 1mg/ml) | Solubility, Phosphate buffer pH 7 [2]: SS (SS indicates solubility ≥ 1mg/ml) | Solubility, Phosphate buffer pH 7.5 [2]: SS (SS indicates solubility ≥ 1mg/ml)
